Test system: GST-Bcl-2
Test: TR-FRET binding assay, Bcl-2
Conditions: TR-FRET Ki values
Outline: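 Ki values come from Wang's competitive-binding equation applied to TR-FRET signal (excitation 340/35 nm; emission 520/525 nm F-Bak peptide, 495/510 nm Tb antibody). Protein, probe and antibody incubated with compound 3 h at room temperature; dilution series began at 50 μM as 2× stock in 10% DMSO.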

Row | SMILES | Binding selectivity ratio (Bcl-XL Ki/Bcl-2 Ki)
1 | COCCOCCN1CCO[C@H](CNc2ccc(S(=O)(=O)NC(=O)c3ccc(N4CCN(CC5=C(c6ccc(Cl)cc6)CC(C)(C)CC5)CC4)cc3Oc3cccc4[nH]cnc34)cc2[N+](=O)[O-])C1 [EXAMPLE 455, 2-(1H-benzimidazol-4-yloxy)-4-(4-{[2-(4-chlorophenyl)-4,4-dimethylcyclohex-1-en-1-yl]methyl}piperazin-1-yl)-N-({4-[({(2R)-4-[2-(2-methoxyethoxy)ethyl]morpholin-2-yl}methyl)amino]-3-nitrophenyl}sulfonyl)benzamide] | 139.4
2 | CC1(C)CCC(CN2CCN(c3ccc(C(=O)NS(=O)(=O)c4ccc(NCCCN5CCCC5=O)c([N+](=O)[O-])c4)c(Oc4ccc5[nH]ccc5c4)c3)CC2)=C(c2ccc(Cl)cc2)C1 [EXAMPLE 374, 4-(4-{[2-(4-chlorophenyl)-4,4-dimethylcyclohex-1-en-1-yl]methyl}piperazin-1-yl)-2-(1H-indol-5-yloxy)-N-[(3-nitro-4-{[3-(2-oxopyrrolidin-1-yl)propyl]amino}phenyl)sulfonyl]benzamide] | >291.2
3 | CC1(C)CCC(CN2CCN(c3ccc(C(=O)NS(=O)(=O)c4ccc(NCC5CN(C6CC6)CCO5)c([N+](=O)[O-])c4)c(Oc4cccc5[nH]ncc45)c3)CC2)=C(c2ccc(Cl)cc2)C1 (centres unmarked) [EXAMPLE 411, 4-(4-{[2-(4-chlorophenyl)-4,4-dimethylcyclohex-1-en-1-yl]methyl}piperazin-1-yl)-N-[(4-{[(4-cyclopropylmorpholin-2-yl)methyl]amino}-3-nitrophenyl)sulfonyl]-2-(1H-indazol-4-yloxy)benzamide] | 2352
4 | CC1(C)CCC(CN2CCN(c3ccc(C(=O)NS(=O)(=O)c4cnc(O[C@@H]5CCN(C(CF)CF)C5)c(Cl)c4)c(Oc4cccc5[nH]ncc45)c3)CC2)=C(c2ccc(Cl)cc2)C1 [EXAMPLE 434, N-{[5-chloro-6-({(3R)-1-[2-fluoro-1-(fluoromethyl)ethyl]pyrrolidin-3-yl}oxy)pyridin-3-yl]sulfonyl}-4-(4-{[2-(4-chlorophenyl)-4,4-dimethylcyclohex-1-en-1-yl]methyl}piperazin-1-yl)-2-(1H-indazol-4-yloxy)benzamide] | 1459
5 | O=C(NS(=O)(=O)c1ccc(NCC2CCOCC2)c(S(=O)(=O)C(F)(F)F)c1)c1ccc(N2CCN(Cc3ccccc3-c3ccc(Cl)cc3)CC2)cc1Oc1ccc2[nH]ccc2c1 [Example 62, 4-{4-[(4′-chloro-1,1′-biphenyl-2-yl)methyl]piperazin-1-yl}-2-(1H-indol-5-yloxy)-N-({4-[(tetrahydro-2H-pyran-4-ylmethyl)amino]-3-[(trifluoromethyl)sulfonyl]phenyl}sulfonyl)benzamide] | 162.4
6 | CC1(C)CCC(CN2CCN(c3ccc(C(=O)NS(=O)(=O)c4cnc(NC5CCN(C6CC6)CC5)c(Cl)c4)c(Oc4cccc5[nH]cnc45)c3)CC2)=C(c2ccc(Cl)cc2)C1 [EXAMPLE 449, 2-(1H-benzimidazol-4-yloxy)-N-({5-chloro-6-[(1-cyclopropylpiperidin-4-yl)amino]pyridin-3-yl}sulfonyl)-4-(4-{[2-(4-chlorophenyl)-4,4-dimethylcyclohex-1-en-1-yl]methyl}piperazin-1-yl)benzamide] | 74.4
7 | CC1(C)CCC(CN2CCN(c3ccc(C(=O)NS(=O)(=O)c4cnc(OCC5(F)CCOCC5)c(F)c4)c(Oc4cccc5[nH]cnc45)c3)CC2)=C(c2ccc(Cl)cc2)C1 [EXAMPLE 442, 2-(1H-benzimidazol-4-yloxy)-4-(4-{[2-(4-chlorophenyl)-4,4-dimethylcyclohex-1-en-1-yl]methyl}piperazin-1-yl)-N-({5-fluoro-6-[(4-fluorotetrahydro-2H-pyran-4-yl)methoxy]pyridin-3-yl}sulfonyl)benzamide] | 3358.9
8 | O=C(NS(=O)(=O)c1ccc(NC2CCN(C3CCOCC3)CC2)c([N+](=O)[O-])c1)c1ccc(N2CCN(CC3=C(c4ccc(Cl)cc4)CCC(O)C3)CC2)cc1Oc1ccc2[nH]ccc2c1 (centres unmarked) [EXAMPLE 225, 4-(4-{[2-(4-chlorophenyl)-5-hydroxycyclohex-1-en-1-yl]methyl}piperazin-1-yl)-2-(1H-indol-5-yloxy)-N-({3-nitro-4-[(1-tetrahydro-2H-pyran-4-ylpiperidin-4-yl)amino]phenyl}sulfonyl)benzamide] | >348.2
9 | CN(C)CC(=O)N1CCO[C@@H](COc2ncc(S(=O)(=O)NC(=O)c3ccc(N4CCN(CC5=C(c6ccc(Cl)cc6)CC(C)(C)CC5)CC4)cc3Oc3cccc4[nH]cnc34)cc2Cl)C1 [EXAMPLE 424, 2-(1H-benzimidazol-4-yloxy)-N-[(5-chloro-6-{[(2R)-4-(N,N-dimethylglycyl)morpholin-2-yl]methoxy}pyridin-3-yl)sulfonyl]-4-(4-{[2-(4-chlorophenyl)-4,4-dimethylcyclohex-1-en-1-yl]methyl}piperazin-1-yl)benzamide] | 782.52
10 | CC1(C)CCC(CN2CCN(c3ccc(C(=O)NS(=O)(=O)c4ccc(NC5CCOCC5)c([N+](=O)[O-])c4)c(Oc4ccc5[nH]ccc5c4)c3)CC2)=C(c2ccc(Cl)cc2)C1 [EXAMPLE 263, 4-(4-{[2-(4-chlorophenyl)-4,4-dimethylcyclohex-1-en-1-yl]methyl}piperazin-1-yl)-2-(1H-indol-5-yloxy)-N-{[3-nitro-4-(tetrahydro-2H-pyran-4-ylamino)phenyl]sulfonyl}benzamide] | >2090.0
11 | CC1(C)CCC(CN2CCN(c3ccc(C(=O)NS(=O)(=O)c4ccc(NCCCN5CCOCC5)c(S(=O)(=O)C(F)(F)F)c4)c(Oc4ccc5[nH]ccc5c4)c3)CC2)=C(c2ccc(Cl)cc2)C1 [EXAMPLE 348, 4-(4-{[2-(4-chlorophenyl)-4,4-dimethylcyclohex-1-en-1-yl]methyl}piperazin-1-yl)-2-(1H-indol-5-yloxy)-N-({4-[(3-morpholin-4-ylpropyl)amino]-3-[(trifluoromethyl)sulfonyl]phenyl}sulfonyl)benzamide] | 97.1
12 | CC1(C)CCC(CN2CCN(c3ccc(C(=O)NS(=O)(=O)c4cnc(OCC5CCOCC5)c(Cl)c4)c(Oc4cccc5[nH]ncc45)c3)CC2)=C(c2ccc(Cl)cc2)C1 [EXAMPLE 427, 4-(4-{[2-(4-chlorophenyl)-4,4-dimethylcyclohex-1-en-1-yl]methyl}piperazin-1-yl)-N-{[5-chloro-6-(tetrahydro-2H-pyran-4-ylmethoxy)pyridin-3-yl]sulfonyl}-2-(1H-indazol-4-yloxy)benzamide] | 34408.55031
13 | CC1(C)CCC(CN2CCN(c3ccc(C(=O)NS(=O)(=O)c4ccc(NCC5(N)CCCCC5)c([N+](=O)[O-])c4)c(Oc4ccc5[nH]ccc5c4)c3)CC2)=C(c2ccc(Cl)cc2)C1 [EXAMPLE 250, N-[(4-{[(1-aminocyclohexyl)methyl]amino}-3-nitrophenyl)sulfonyl]-4-(4-{[2-(4-chlorophenyl)-4,4-dimethylcyclohex-1-en-1-yl]methyl}piperazin-1-yl)-2-(1H-indol-5-yloxy)benzamide] | 811
14 | COc1ccc(S(=O)(=O)NC(=O)c2ccc(N3CCN(Cc4ccccc4-c4ccc(Cl)cc4)CC3)cc2Oc2ccccc2)cc1 [Example 60, 4-{4-[(4′-chloro-1,1′-biphenyl-2-yl)methyl]piperazin-1-yl}-N-[(4-methoxyphenyl)sulfonyl]-2-phenoxybenzamide] | >34.9

Source: US9125913B2, “Bcl-2-selective apoptosis-inducing agents for the treatment of cancer and immune diseases” (AbbVie Inc., priority 2008, dated 2015)
